Laboratory results taken from patent US20190010139A1 (priority 2015, published 2019).
pEC50: −log10 of the molar value.

What follows are molecules tested on NL-RLuc virus (assay: Inhibition of HIV replication (NL-RLuc luciferase reporter virus in MT-2 cells)). Details: Human immunodeficiency virus 1, MT2, 120 h, read-out: Activity.
Format: cell-based
In short: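 MT-2 cells were infected with NL4-3-derived virus carrying Renilla luciferase in place of part of nef, with serial compound dilutions, in RPMI 1640 with 10% FBS. After 5 days, virus growth was read as luciferase signal. EC50 came from the median effect equation over at least 2 experiments.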

| Compound | pEC50 |
| --- | --- |
| COc1ccc(NCc2nc(C)c([C@H](OC(C)(C)C)C(=O)O)c(N3CCC4(CCC4)CC3)c2-c2ccc(OCCc3ccc(F)cc3)cc2)cc1 [Example 47, (S)-2-(tert-Butoxy)-2-(5-(4-(4-fluorophenethoxy)phenyl)-6-(((4-methoxyphenyl)-amino)methyl)-2-methyl-4-(7-azaspiro[3.5]nonan-7-yl)pyridin-3-yl)acetic acid] | > 7.00 |
| Cc1nc(C)c([C@H](OC(C)(C)C)C(=O)O)c(N2CCC3(CCC3)CC2)c1-c1ccc2c(c1)CCN(Cc1ccccc1F)C2 [Example 33, (S)-2-(tert-Butoxy)-2-(5-(2-(2-fluorobenzyl)-1,2,3,4-tetrahydroisoquinolin-6-yl)-2,6-dimethyl-4-(7-azaspiro[3.5]nonan-7-yl)pyridin-3-yl)acetic acid] | > 7.00 |
| Cc1nc(C)c([C@H](OC(C)(C)C)C(=O)O)c(N2CCC3(CCC3)CC2)c1-c1ccc(C(=O)NCc2ccccc2)c(F)c1 [Example 31, (S)-2-(5-(4-(Benzylcarbamoyl)-3-fluorophenyl)-2,6-dimethyl-4-(7-azaspiro[3.5]nonan-7-yl)pyridin-3-yl)-2-(tert-butoxy)acetic acid] | > 7.00 |
| Cc1nc(C)c([C@H](OC(C)(C)C)C(=O)O)c(N2CCc3ccccc3C2)c1-c1ccc(OCCc2ccc(F)cc2)cc1 [Example 10, (S)-2-(tert-Butoxy)-2-(4-(3,4-dihydroisoquinolin-2(1H)-yl)-5-(4-(4-fluorophenethoxy)phenyl)-2,6-dimethylpyridin-3-yl)acetic acid] | > 7.00 |
| Cc1nc(C)c([C@H](OC(C)(C)C)C(=O)O)c(N2CCC3(CC2)CC3(F)F)c1-c1ccc(OCCc2ccc(F)cc2)cc1 [Example 70, (S)-2-(tert-Butoxy)-2-(4-(1,1-difluoro-6-azaspiro[2.5]octan-6-yl)-5-(4-(4-fluorophenethoxy)phenyl)-2,6-dimethylpyridin-3-yl)acetic acid] | > 7.00 |
| CCOCc1nc(C)c([C@H](OC(C)(C)C)C(=O)O)c(N2CCC3(CCC3)CC2)c1-c1ccc(OCCc2ccc(F)cc2)cc1 [Example 41, (S)-2-(tert-Butoxy)-2-(6-(ethoxymethyl)-5-(4-(4-fluorophenethoxy)phenyl)-2-methyl-4-(7-azaspiro[3.5]nonan-7-yl)pyridin-3-yl)acetic acid] | > 7.00 |
| Cc1nc(C)c([C@H](OC(C)(C)C)C(=O)O)c(N2CC3CCCC3C2)c1-c1ccc(C(=O)NCc2ccccc2)cc1 (stereo partly drawn) [Example 4, (2S)-2-(5-(4-(Benzylcarbamoyl)phenyl)-4-(hexahydrocyclopenta[c]pyrrol-2(1H)-yl)-2,6-dimethylpyridin-3-yl)-2-(tert-butoxy)acetic acid] | > 7.00 |
| Cc1nc(CN(C)CC2CCOCC2)c(-c2ccc(OCCc3ccc(F)cc3)cc2)c(N2CCC3(CCC3)CC2)c1[C@H](OC(C)(C)C)C(=O)O [Example 46, (S)-2-(tert-Butoxy)-2-(5-(4-(4-fluorophenethoxy)phenyl)-2-methyl-6-((methyl((tetrahydro-2H-pyran-4-yl)methyl)amino)methyl)-4-(7-azaspiro[3.5]nonan-7-yl)pyridin-3-yl)acetic acid] | > 7.00 |
| Cc1nc(C)c([C@H](OC(C)(C)C)C(=O)O)c(N2CCC3(CCCC3)CC2)c1-c1ccc(OCC(C)(C)c2ccc(F)cc2)cc1 [Example 22, (S)-2-(tert-Butoxy)-2-(5-(4-(2-(4-fluorophenyl)-2-methylpropoxy)phenyl)-2,6-dimethyl-4-(8-azaspiro[4.5]decan-8-yl)pyridin-3-yl)acetic acid] | > 7.00 |
| Cc1nc(CO)c([C@H](OC(C)(C)C)C(=O)O)c(N2CCC3(CCC3)CC2)c1-c1ccc(OCCc2ccc(F)cc2)cc1 [Example 39, (S)-2-(tert-Butoxy)-2-(5-(4-(4-fluorophenethoxy)phenyl)-2-(hydroxymethyl)-6-methyl-4-(7-azaspiro[3.5]nonan-7-yl)pyridin-3-yl)acetic acid] | > 7.00 |
| Cc1nc(C)c([C@H](OC(C)(C)C)C(=O)O)c(N2CCC3(CCCC3)CC2)c1-c1ccc(C(=O)NCc2ccccc2)c(F)c1 [Example 24, (S)-2-(5-(4-(Benzylcarbamoyl)-3-fluorophenyl)-2,6-dimethyl-4-(8-azaspiro[4.5]decan-8-yl)pyridin-3-yl)-2-(tert-butoxy)acetic acid] | > 7.00 |
| Cc1ccc(CN2CCc3cc(-c4c(C)nc(C)c([C@H](OC(C)(C)C)C(=O)O)c4N4CCC5(CCC5)CC4)ccc3C2)c(F)c1 [Example 37, (S)-2-(tert-Butoxy)-2-(5-(2-(2-fluoro-4-methylbenzyl)-1,2,3,4-tetrahydroisoquinolin-6-yl)-2,6-dimethyl-4-(7-azaspiro[3.5]nonan-7-yl)pyridin-3-yl)acetic acid] | > 7.00 |
| Cc1nc(CNCC2CCOCC2)c(-c2ccc(OCCc3ccc(F)cc3)cc2)c(N2CCC3(CCC3)CC2)c1[C@H](OC(C)(C)C)C(=O)O [Example 45, (S)-2-(tert-Butoxy)-2-(5-(4-(4-fluorophenethoxy)phenyl)-2-methyl-4-(7-azaspiro[3.5]nonan-7-yl)-6-((((tetrahydro-2H-pyran-4-yl)methyl)amino)methyl)pyridin-3-yl)acetic acid] | > 7.00 |
| Cc1cc(F)ccc1CN1CCc2cc(-c3c(C)nc(C)c([C@H](OC(C)(C)C)C(=O)O)c3N3CCC4(CCC4)CC3)ccc2C1 [Example 35, (S)-2-(tert-Butoxy)-2-(5-(2-(4-fluoro-2-methylbenzyl)-1,2,3,4-tetrahydroisoquinolin-6-yl)-2,6-dimethyl-4-(7-azaspiro[3.5]nonan-7-yl)pyridin-3-yl)acetic acid] | > 7.00 |

Same assay, conditions: Human immunodeficiency virus 1, MT2, 120 h, read-out: EC50 μM

| Compound | EC50 [µM] |
| --- | --- |
| Cc1nc(C)c([C@H](OC(C)(C)C)C(=O)O)c(N2CCC3(CCCC3)CC2)c1-c1ccc(OCC(C)(C)c2ccc(F)cc2)cc1 [Example 22, (S)-2-(tert-Butoxy)-2-(5-(4-(2-(4-fluorophenyl)-2-methylpropoxy)phenyl)-2,6-dimethyl-4-(8-azaspiro[4.5]decan-8-yl)pyridin-3-yl)acetic acid] | 0.026 |
| Cc1cc(F)ccc1CN1CCc2cc(-c3c(C)nc(C)c([C@H](OC(C)(C)C)C(=O)O)c3N3CCC4(CCC4)CC3)ccc2C1 [Example 35, (S)-2-(tert-Butoxy)-2-(5-(2-(4-fluoro-2-methylbenzyl)-1,2,3,4-tetrahydroisoquinolin-6-yl)-2,6-dimethyl-4-(7-azaspiro[3.5]nonan-7-yl)pyridin-3-yl)acetic acid] | 0.006 |
